US20220119354A1, “DIAMINO-SUBSTITUTED PYRIDINES AND PYRIMIDINES AS HERBICIDES” (FMC Corporation, priority 2019, published 2022)

Experiments:
Format in all cases: in vivo
[1] = tested on: barnyardgrass (Echinochloa crus-galli); assay: Test A preemergence, barnyardgrass; conditions: 0 to 100 scale, 0 is no effect, 100 is complete control
In short: (§1)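 Visual injury scores (0 no effect to 100 complete control) were assigned about 10 d after treatment by comparison with untreated controls. Test chemicals, formulated in a surfactant-containing non-phytotoxic solvent, were applied to soil at planting or to plants at the one- to two-leaf stage.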

kochia (Kochia scoparia) [2] = assay: Test A preemergence, kochia; conditions: 0 to 100 scale, 0 is no effect, 100 is complete control
In short: as §1

[3] = tested on: ragweed (common ragweed, Ambrosia elatior); assay: Test A preemergence, ragweed; conditions: 0 to 100 scale, 0 is no effect, 100 is complete control
In short: as §1

[4] = tested on: ryegrass, Italian (Lolium multiflorum); assay: Test A preemergence, Italian ryegrass; conditions: 0 to 100 scale, 0 is no effect, 100 is complete control
In short: as §1

[5] = tested on: foxtail, giant (Setaria faberii); assay: Test A preemergence, giant foxtail; conditions: 0 to 100 scale, 0 is no effect, 100 is complete control
In short: as §1

[6] = tested on: pigweed (Amaranthus retroflexus); assay: Test A preemergence, pigweed; conditions: 0 to 100 scale, 0 is no effect, 100 is complete control
In short: as §1

[7] = tested on: barnyardgrass (Echinochloa crus-galli); assay: Test A postemergence, barnyardgrass; conditions: 0 to 100 scale, 0 no effect, 100 complete control
In short: as §1

kochia (Kochia scoparia) [8] = assay: Test A postemergence, kochia; conditions: 0 to 100 scale, 0 no effect, 100 complete control
In short: as §1

[9] = tested on: ragweed (common ragweed, Ambrosia elatior); assay: Test A postemergence, ragweed; conditions: 0 to 100 scale, 0 no effect, 100 complete control
In short: as §1

[10] = tested on: ryegrass, Italian (Lolium multiflorum); assay: Test A postemergence, Italian ryegrass; conditions: 0 to 100 scale, 0 no effect, 100 complete control
In short: as §1

[11] = tested on: foxtail, giant (Setaria faberii); assay: Test A postemergence, giant foxtail; conditions: 0 to 100 scale, 0 no effect, 100 complete control
In short: as §1

[12] = tested on: pigweed (Amaranthus retroflexus); assay: Test A postemergence, pigweed; conditions: 0 to 100 scale, 0 no effect, 100 complete control
In short: as §1

[13] = tested on: wheat (Triticum aestivum); assay: Test A postemergence, wheat; conditions: 0 to 100 scale, 0 no effect, 100 complete control
In short: as §1

corn (Zea mays) = assay: Test A postemergence, corn; conditions: 0 to 100 scale, 0 no effect, 100 complete control
In short: as §1

[14] = tested on: blackgrass (Alopecurus myosuroides); assay: Test A postemergence, blackgrass; conditions: 0 to 100 scale, 0 no effect, 100 complete control
In short: as §1

[15] = tested on: galium (catchweed bedstraw, Galium aparine); assay: Test A postemergence, galium; conditions: 0 to 100 scale, 0 no effect, 100 complete control
In short: as §1

rice (Oryza sativa) = assay: Test B flooded paddy test, rice; conditions: Flood, 250 g ai/ha, applied to paddy water, 2-leaf stage, visual evaluation after 13 to 15 d
In short: (§2)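 Application was made into paddy water of pots flooded 3 cm deep at treatment, with seedlings at the 2-leaf stage. That flood level was kept throughout, and plants stayed under glass 13 to 15 d before visual assessment on a 0–100 control scale.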

[16] = tested on: sedge, umbrella (small-flower umbrella sedge, Cyperus difformis); assay: Test B flooded paddy test, umbrella sedge; conditions: Flood, 250 g ai/ha, applied to paddy water, 2-leaf stage, visual evaluation after 13 to 15 d
In short: as §2

[17] = tested on: ducksalad (Heteranthera limosa); assay: Test B flooded paddy test, ducksalad; conditions: Flood, 250 g ai/ha, applied to paddy water, 2-leaf stage, visual evaluation after 13 to 15 d
In short: as §2

[18] = tested on: barnyardgrass (Echinochloa crus-galli); assay: Test B flooded paddy test, barnyardgrass; conditions: Flood, 250 g ai/ha, applied to paddy water, 2-leaf stage, visual evaluation after 13 to 15 d
In short: as §2

| Structure (SMILES) | Barnyardgrass plant response rating ([1]; 125 g ai/ha) | Barnyardgrass plant response rating ([1]; 500 g ai/ha) | Kochia plant response rating (kochia (Kochia scoparia) [2]; 125 g ai/ha) | Kochia plant response rating (kochia (Kochia scoparia) [2]; 500 g ai/ha) | Ragweed plant response rating ([3]; 125 g ai/ha) | Ragweed plant response rating ([3]; 500 g ai/ha) | Ryegrass, Italian plant response rating ([4]; 125 g ai/ha) | Ryegrass, Italian plant response rating ([4]; 500 g ai/ha) | Foxtail, Giant plant response rating ([5]; 125 g ai/ha) | Foxtail, Giant plant response rating ([5]; 500 g ai/ha) | Pigweed plant response rating ([6]; 125 g ai/ha) | Pigweed plant response rating ([6]; 500 g ai/ha) | Plant response rating, Barnyardgrass ([7]; 125 g ai/ha) | Plant response rating, Barnyardgrass ([7]; 500 g ai/ha) | Plant response rating, Kochia (kochia (Kochia scoparia) [8]; 125 g ai/ha) | Plant response rating, Kochia (kochia (Kochia scoparia) [8]; 500 g ai/ha) | Plant response rating, Ragweed ([9]; 125 g ai/ha) | Plant response rating, Ragweed ([9]; 500 g ai/ha) | Plant response rating, Ryegrass, Italian ([10]; 125 g ai/ha) | Plant response rating, Ryegrass, Italian ([10]; 500 g ai/ha) | other results |
| --- | --- | --- | --- | --- | --- | --- | --- | --- | --- | --- | --- | --- | --- | --- | --- | --- | --- | --- | --- | --- | --- |
| C[C@@H](Nc1ncc(C(F)(F)F)c(N)n1)c1cc2ccccc2n1C [Compound 98] | 20 | 50 | 0 | 0 | 20 | 80 | 20 | 40 | 0 | 40 | 0 | 100 | 0 | 0 | 20 | 40 | 30 | 60 | 0 | 0 | Plant response rating, Foxtail, Giant ([11]; 125 g ai/ha): 0; Plant response rating, Foxtail, Giant ([11]; 500 g ai/ha): 0; Plant response rating, Pigweed ([12]; 125 g ai/ha): 60; Plant response rating, Pigweed ([12]; 500 g ai/ha): 90; Plant response rating, Wheat ([13]; 125 g ai/ha): 0; Plant response rating, Wheat ([13]; 500 g ai/ha): 0; Plant response rating, Corn (corn (Zea mays); 125 g ai/ha): 0; Plant response rating, Corn (corn (Zea mays); 500 g ai/ha): 0; Plant response rating, Blackgrass ([14]; 125 g ai/ha): 0; Plant response rating, Blackgrass ([14]; 500 g ai/ha): 0; Plant response rating, Galium ([15]; 125 g ai/ha): 50; Plant response rating, Galium ([15]; 500 g ai/ha): 70; Plant response rating, Rice (0 to 100 scale, 0 is no effect, 100 is complete control) (rice (Oryza sativa)): 0; Plant response rating, Sedge, Umbrella (0 to 100 scale, 0 is no effect, 100 is complete control) [16]: 0; Plant response rating, Ducksalad (0 to 100 scale, 0 is no effect, 100 is complete control) [17]: 0; Plant response rating, Barnyardgrass (0 to 100 scale, 0 is no effect, 100 is complete control) [18]: 0 |
| CC(Nc1ncc([N+](=O)[O-])c(N)n1)c1cc2ccccc2s1 (stereo not drawn) [Compound 99] | 40 | 90 | 0 | 90 | 90 | 100 | 20 | 80 | 70 | 100 | 40 | 100 | 30 | 70 | 50 | 80 | 20 | 80 | 0 | 40 | Plant response rating, Foxtail, Giant ([11]; 125 g ai/ha): 10; Plant response rating, Foxtail, Giant ([11]; 500 g ai/ha): 60; Plant response rating, Pigweed ([12]; 125 g ai/ha): 50; Plant response rating, Pigweed ([12]; 500 g ai/ha): 70; Plant response rating, Wheat ([13]; 125 g ai/ha): 0; Plant response rating, Wheat ([13]; 500 g ai/ha): 0; Plant response rating, Corn (corn (Zea mays); 125 g ai/ha): 0; Plant response rating, Corn (corn (Zea mays); 500 g ai/ha): 30; Plant response rating, Blackgrass ([14]; 125 g ai/ha): 0; Plant response rating, Blackgrass ([14]; 500 g ai/ha): 0; Plant response rating, Galium ([15]; 125 g ai/ha): 20; Plant response rating, Galium ([15]; 500 g ai/ha): 70; Plant response rating, Rice (0 to 100 scale, 0 is no effect, 100 is complete control) (rice (Oryza sativa)): 0; Plant response rating, Sedge, Umbrella (0 to 100 scale, 0 is no effect, 100 is complete control) [16]: 0; Plant response rating, Ducksalad (0 to 100 scale, 0 is no effect, 100 is complete control) [17]: 0; Plant response rating, Barnyardgrass (0 to 100 scale, 0 is no effect, 100 is complete control) [18]: 0 |
| CC(Nc1ncc(C(F)(F)F)c(N)n1)c1cc2c(Cl)cccc2o1 (stereo not drawn) [Compound 100] | 60 | 90 | 90 | 90 | 50 | 100 | 0 | 90 | 90 | 100 | 100 | 100 | 30 | 90 | 60 | 100 | 60 | 100 | 40 | 70 | Plant response rating, Foxtail, Giant ([11]; 125 g ai/ha): 20; Plant response rating, Foxtail, Giant ([11]; 500 g ai/ha): 50; Plant response rating, Pigweed ([12]; 125 g ai/ha): 100; Plant response rating, Pigweed ([12]; 500 g ai/ha): 100; Plant response rating, Wheat ([13]; 125 g ai/ha): 50; Plant response rating, Wheat ([13]; 500 g ai/ha): 40; Plant response rating, Corn (corn (Zea mays); 125 g ai/ha): 0; Plant response rating, Corn (corn (Zea mays); 500 g ai/ha): 20; Plant response rating, Blackgrass ([14]; 125 g ai/ha): 30; Plant response rating, Blackgrass ([14]; 500 g ai/ha): 70; Plant response rating, Galium ([15]; 125 g ai/ha): 100; Plant response rating, Galium ([15]; 500 g ai/ha): 100; Plant response rating, Rice (0 to 100 scale, 0 is no effect, 100 is complete control) (rice (Oryza sativa)): 0; Plant response rating, Sedge, Umbrella (0 to 100 scale, 0 is no effect, 100 is complete control) [16]: 35; Plant response rating, Ducksalad (0 to 100 scale, 0 is no effect, 100 is complete control) [17]: 20; Plant response rating, Barnyardgrass (0 to 100 scale, 0 is no effect, 100 is complete control) [18]: 45 |
| C[C@@H](Nc1ncc(C#N)c(N)n1)c1cc2ccccc2s1 [Compound 104] | 0 | 0 | 30 | 90 | 60 | 100 | 30 | 60 | 20 | 60 | 50 | 80 | 0 | 20 | 10 | 60 | 20 | 80 | 0 | 70 | Plant response rating, Foxtail, Giant ([11]; 125 g ai/ha): 0; Plant response rating, Foxtail, Giant ([11]; 500 g ai/ha): 20; Plant response rating, Pigweed ([12]; 125 g ai/ha): 80; Plant response rating, Pigweed ([12]; 500 g ai/ha): 100; Plant response rating, Wheat ([13]; 125 g ai/ha): 0; Plant response rating, Wheat ([13]; 500 g ai/ha): 0; Plant response rating, Corn (corn (Zea mays); 125 g ai/ha): 0; Plant response rating, Corn (corn (Zea mays); 500 g ai/ha): 0; Plant response rating, Blackgrass ([14]; 125 g ai/ha): 0; Plant response rating, Blackgrass ([14]; 500 g ai/ha): 20; Plant response rating, Galium ([15]; 125 g ai/ha): 40; Plant response rating, Galium ([15]; 500 g ai/ha): 80; Plant response rating, Rice (0 to 100 scale, 0 is no effect, 100 is complete control) (rice (Oryza sativa)): 0; Plant response rating, Sedge, Umbrella (0 to 100 scale, 0 is no effect, 100 is complete control) [16]: 0; Plant response rating, Ducksalad (0 to 100 scale, 0 is no effect, 100 is complete control) [17]: 0; Plant response rating, Barnyardgrass (0 to 100 scale, 0 is no effect, 100 is complete control) [18]: 0 |
| Cc1nc(NC(C)c2cc3ccccc3s2)nc(N)c1C(F)(F)F (stereo not drawn) [Compound 105] | 40 | 60 | 90 | 100 | 100 | 100 | 20 | 90 | 40 | 100 | 100 | 100 | 30 | 60 | 80 | 100 | 70 | 100 | 100 | 100 | Plant response rating, Foxtail, Giant ([11]; 125 g ai/ha): 0; Plant response rating, Foxtail, Giant ([11]; 500 g ai/ha): 60; Plant response rating, Pigweed ([12]; 125 g ai/ha): 0; Plant response rating, Pigweed ([12]; 500 g ai/ha): 60; Plant response rating, Wheat ([13]; 125 g ai/ha): 0; Plant response rating, Wheat ([13]; 500 g ai/ha): 0; Plant response rating, Corn (corn (Zea mays); 125 g ai/ha): 0; Plant response rating, Corn (corn (Zea mays); 500 g ai/ha): 0; Plant response rating, Blackgrass ([14]; 125 g ai/ha): 0; Plant response rating, Blackgrass ([14]; 500 g ai/ha): 0; Plant response rating, Galium ([15]; 125 g ai/ha): 90; Plant response rating, Galium ([15]; 500 g ai/ha): 90; Plant response rating, Rice (0 to 100 scale, 0 is no effect, 100 is complete control) (rice (Oryza sativa)): 0; Plant response rating, Sedge, Umbrella (0 to 100 scale, 0 is no effect, 100 is complete control) [16]: 0; Plant response rating, Ducksalad (0 to 100 scale, 0 is no effect, 100 is complete control) [17]: 0; Plant response rating, Barnyardgrass (0 to 100 scale, 0 is no effect, 100 is complete control) [18]: 0 |
